Results on three compounds are retold here after US12194038B2, “Use of flibanserin in preparation of drug for treating androgenic alopecia” (SHANGHAI DIMAIHE BIOTECHNOLOGY CO., LTD., priority 2022, dated 2025).

Several values for one entry are separate records, joined by “and”; a condition that tells them apart may be missing. Equal values may be shown once. Read-outs that look alike come from different tables or passages of the source.

The subject of assay [1] is Lncap cells. To be noted: 48 h.
The subject of assay [2] is AGA model mice. As to the kind of experiment: Hair restoration in testosterone propionate-induced AGA model mice. In kind it is in vivo. As to conditions: for Effective rate of animal hair restoration (effective rate of drug) / Hair restoration compared with the model group: AGA model mice, intragastric administration for 4 weeks. How it is done: Animal experiment-related reagents: testosterone propionate, Batch No. T818615. Soybean oil, Batch No. A23GS146219. 80 mg of testosterone propionate was dissolved in 40 mL of soybean oil to prepare a solution at 2 mg/mL. […] Flibanserin, Batch No. W1608745834, 0.32 mg of flibanserin was dissolved in 20 mL of physiological saline to prepare a solution at 1.6×10^−2 mg/mL
The experimental animals are male […] mice, non-inbred closed colony, weighing 18-22 g, aged 5 weeks, certificate number: No. 202207119, provided by the Institute of Comparative Medicine, Yangzhou University. In the laboratory, room temperature is 20° C.-22° C., the relative humidity is 40%-60%, ventilation is provided by a ventilation fan, and the natural light source is provided for 12 h/day. The mice were caged, with 7 mice per cage, and the cages were cleaned every three days.
Before the injection of testosterone propionate for modeling, pre-treatment was first performed, wherein the pre-treatment comprises: fixing the mice, shaving off the hairs on the back of the mice by an electric shaver, and unhairing vellus hairs using an unhairing cream. […] After successful modeling, the intragastric administration was performed for 4 weeks on the basis of the injection of the testosterone propionate solution. After the administration was completed, the effective rate (percentage of hair restoring mice to the total number of mice) of the drug was subjected to statistical analysis, and the ratio of the area of the hair growing part to the area of the unhairing part in mice was subjected to statistical analysis. The mouse hairs were taken from multiple points at different hair restoring parts on the back of the mice for length measurement and statistical analysis. The mice were sacrificed by cervical dislocation, and the back skin was taken, wherein a part of the back skin was frozen at −80° C. for extracting protein and performing a nuclear protein and cytoplasmic protein separation experiment to explore the inhibition of the drug on the nuclear localization of the androgen receptor dimer, and a part of the back skin was fixed with 4% paraformaldehyde (Cat. No.: AF030) for 48 h, and then subjected to tissue section and HE staining. […] Determination criteria: The unhairing area of the back of the mice after unhairing was measured, noted as A, the hair growing area of the back of the mice after the completion of the administration was measured, noted as B, and the mean value of the […] in each group was taken as the effective rate of animal hair restoration.

Assay [3] has as its target T1, androgen receptor (Mus musculus, UniProt P19091).
T1 construct: Mouse primary hair follicle dermal papilla cells were extracted according to enzymatic digestion and cultured for 10 days; endogenous in cells; host or cells: mouse primary hair follicle dermal papilla cells
T1 sequence (P19091 1-899): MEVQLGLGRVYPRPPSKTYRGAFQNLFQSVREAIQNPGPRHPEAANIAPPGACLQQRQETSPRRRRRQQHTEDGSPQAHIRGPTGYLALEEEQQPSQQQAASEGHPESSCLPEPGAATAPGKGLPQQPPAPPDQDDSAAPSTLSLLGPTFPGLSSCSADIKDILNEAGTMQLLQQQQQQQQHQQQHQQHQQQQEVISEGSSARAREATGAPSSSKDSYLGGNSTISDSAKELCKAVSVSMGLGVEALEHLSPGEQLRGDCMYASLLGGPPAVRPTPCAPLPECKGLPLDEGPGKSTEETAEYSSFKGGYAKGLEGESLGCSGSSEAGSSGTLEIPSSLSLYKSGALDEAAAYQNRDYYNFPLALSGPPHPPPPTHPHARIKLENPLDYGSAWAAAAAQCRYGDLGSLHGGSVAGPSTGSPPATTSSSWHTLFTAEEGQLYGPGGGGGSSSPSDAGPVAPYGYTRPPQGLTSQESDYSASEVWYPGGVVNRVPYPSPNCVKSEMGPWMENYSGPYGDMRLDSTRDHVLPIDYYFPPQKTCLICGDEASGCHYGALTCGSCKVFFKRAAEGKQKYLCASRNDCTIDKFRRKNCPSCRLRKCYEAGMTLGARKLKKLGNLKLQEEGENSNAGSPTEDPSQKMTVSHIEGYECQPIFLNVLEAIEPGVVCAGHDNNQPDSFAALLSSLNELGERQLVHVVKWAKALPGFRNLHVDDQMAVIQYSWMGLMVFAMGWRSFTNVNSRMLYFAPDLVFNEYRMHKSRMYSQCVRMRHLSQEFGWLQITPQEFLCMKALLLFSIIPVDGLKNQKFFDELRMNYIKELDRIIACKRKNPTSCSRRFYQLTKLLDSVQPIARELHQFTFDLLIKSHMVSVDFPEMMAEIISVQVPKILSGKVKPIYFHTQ
The assay can be described thus: Nuclear protein and cytoplasmic protein separation experiment in primary hair follicle dermal papilla cells. In kind it is cell-based. As to conditions: 48 h.

The test system of assay [4] is Lncap cells. As to the kind of experiment: Inhibition of proliferation of DHT-stimulated Lncap cells by flibanserin (MTT). As to conditions: for OD value in administration group-OD value in control group: replicate values. In kind it is cell-based, human.
The mark [5] stands for this setting: DHT 10^−8 mol/L + flibanserin 5 and 1 μmol/L (both doses), compared with finasteride group and DHT group.
Setting [6] is: HE staining of tissue sections, compared with the model group.

Consider `C[C@]12CCC(=O)C[C@@H]1CC[C@@H]1[C@@H]2CC[C@]2(C)[C@@H](O)CC[C@@H]12` [DHT, dihydrotestosterone], for which the Mean proliferation rate in assay [1] (DHT 10^−5 uM) is reported as −12.91%; in assay [1] (DHT 10^−6 uM) it was 6.30%; in assay [1] (DHT 10^−7 uM) it was 7.77%; in assay [1] (DHT 10^−8 uM), 9.47%; in assay [1] (DHT 10^−9 uM), 10.01%; in assay [1] (DHT 10^−10 uM), 2.79%.

On to `CC(C)(C)NC(=O)[C@H]1CC[C@H]2[C@@H]3CC[C@H]4NC(=O)C=C[C@]4(C)[C@H]3CC[C@]12C` [Finasteride, finasteride], for which the “Effective rate of animal hair restoration (effective rate of drug)” value (“Effective rate” below) in assay [2] stood at 71.4%. Besides, in assay [2] (listed as finasteride), the “Effective rate” value was 71.4% and the “Hair restoration compared with the model group” value is recorded as “restored to varying degrees”.

Regarding `O=c1[nH]c2ccccc2n1CCN1CCN(c2cccc(C(F)(F)F)c2)CC1` [Flibanserin, flibanserin], the “Total level of the androgen receptor” value in assay [3] (DHT 10^−8 mol/L + finasteride 5 μmol/L or flibanserin 5 and 1 μmol/L, compared with DHT group) is recorded as “no significant difference”. In addition, the “Level of the androgen receptor in the cytoplasm” value in assay [3] (setting [5]) is “increased”. In assay [3] (setting [5]), the “Level of the androgen receptor in the nucleus” value is listed as “decreased”. For the same compound, the “Effective rate” value in assay [2] and in assay [2] (listed as flibanserin) was 85.7% throughout. The “Hair restoration compared with the model group” value in assay [2] (listed as flibanserin) is recorded as “restored to varying degrees”. The “Diameter of hair follicles” value in assay [2] (setting [6]) is recorded as “increase”. Further, in assay [2] (setting [6]), the “Number of hair follicles per unit area” value was “increase”. The “Ratio of anagen to telogen” value in assay [2] (setting [6]) is “increase”. Also, the “Ratio of epidermal thickness to dermal thickness” value in assay [2] (setting [6]) is reported as “increase”. The Hair length result in assay [2] (compared with the model group) is “increase”. Moreover, the inhibition at 0.001 µM in assay [4] (Homo sapiens, LNCaP, flibanserin 0.001 uM, 48 h, after modeling with 10^−9 M DHT, read-out: Mean proliferation inhibition rate) came to 11.9%. Also, in assay [4] (Homo sapiens, LNCaP, flibanserin 0.1 uM, 48 h, after modeling with 10^−9 M DHT, read-out: Mean proliferation inhibition rate), the inhibition at 0.1 µM amounted to 11%. Besides, in assay [4] (Homo sapiens, LNCaP, flibanserin 1 uM, 48 h, after modeling with 10^−9 M DHT, read-out: Mean proliferation inhibition rate), the inhibition at 1 µM was found to be 20.1%. Besides, in assay [4] (Homo sapiens, LNCaP, flibanserin 10 uM, 48 h, after modeling with 10^−9 M DHT, read-out: Mean proliferation inhibition rate), the inhibition at 10 µM was determined as 45.9%. The inhibition at 50 µM in assay [4] (Homo sapiens, LNCaP, flibanserin 50 uM, 48 h, after modeling with 10^−9 M DHT, read-out: Mean proliferation inhibition rate) stood at 82.4%. In assay [4] (Homo sapiens, LNCaP, flibanserin 100 uM, 48 h, after modeling with 10^−9 M DHT, read-out: Mean proliferation inhibition rate), the inhibition at 100 µM was 85.5%. The “OD value in administration group-OD value in control group” value is 0.72 and 0.981 and 0.8943 and 0.8405 and 0.9681 in assay [4] (flibanserin 0.001 uM, 48 h); 0.7821 and 0.9153 and 0.9204 and 0.8399 and 0.9938 in assay [4] (flibanserin 0.1 uM, 48 h); 0.7947 and 0.8164 and 0.702 and 0.8345 and 0.8472 in assay [4] (flibanserin 1 uM, 48 h); 0.3592 and 0.6076 and 0.5562 and 0.5302 and 0.6538 in assay [4] (flibanserin 10 uM, 48 h); 0.1738 and 0.1424 and 0.1556 and 0.1886 and 0.2218 in assay [4] (flibanserin 50 uM, 48 h); 0.1345 and 0.1157 and 0.119 and 0.1751 and 0.1812 in assay [4] (flibanserin 100 uM, 48 h). The “Inhibition of the proliferation of Lncap cells” value in assay [4] (flibanserin at a low concentration, MTT) was “can inhibit”.
